The values below come from ChEMBL document CHEMBL1153958, “Design and optimization of selective serotonin re-uptake inhibitors with high synthetic accessibility. Part 1” (Bioorg Med Chem Lett, 2009).

The target in test [1] is Sodium-dependent serotonin transporter (Homo sapiens, UniProt P31645). Briefly: Inhibition of radiolabeled serotonin reuptake at human SERT expressed in HEK293 cells. It counts as cell-based.
In test [2] the target is Sodium-dependent noradrenaline transporter (Homo sapiens, UniProt P23975). In words: Inhibition of radiolabeled noradrenaline reuptake at human NET expressed in HEK293 cells. It counts as cell-based.
Test [3] has as its target Sodium-dependent dopamine transporter (Homo sapiens, UniProt Q01959). In words: Inhibition of radiolabeled dopamine reuptake at human DAT expressed in HEK293 cells. It counts as cell-based.
The target of test [4] is Voltage-gated inwardly rectifying potassium channel KCNH2 (Homo sapiens, UniProt Q12809). Briefly: Displacement of [3H]dofetilide from human ERG expressed in HEK293 cells.
The target in test [5] is T1, 5-hydroxytryptamine receptor 3A (Homo sapiens, UniProt P46098).
T1 sequence (P46098 whole entry): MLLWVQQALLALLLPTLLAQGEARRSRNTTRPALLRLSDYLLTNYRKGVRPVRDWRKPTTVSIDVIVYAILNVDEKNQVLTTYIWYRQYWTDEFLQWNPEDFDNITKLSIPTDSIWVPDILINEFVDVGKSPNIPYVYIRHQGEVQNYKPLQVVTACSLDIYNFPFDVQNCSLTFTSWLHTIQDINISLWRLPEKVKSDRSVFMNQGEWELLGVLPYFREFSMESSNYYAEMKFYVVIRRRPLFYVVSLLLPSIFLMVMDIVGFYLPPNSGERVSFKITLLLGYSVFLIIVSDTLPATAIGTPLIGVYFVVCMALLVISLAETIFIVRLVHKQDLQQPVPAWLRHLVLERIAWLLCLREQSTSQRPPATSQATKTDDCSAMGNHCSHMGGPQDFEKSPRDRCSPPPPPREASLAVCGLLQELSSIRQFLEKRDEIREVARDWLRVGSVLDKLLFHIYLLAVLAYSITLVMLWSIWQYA
In words: Displacement of [3H]granisetron from human 5HT3 receptor expressed in HEK293 cells. It counts as cell-based.

Sodium-dependent dopamine transporter, sequence (Q01959 whole entry): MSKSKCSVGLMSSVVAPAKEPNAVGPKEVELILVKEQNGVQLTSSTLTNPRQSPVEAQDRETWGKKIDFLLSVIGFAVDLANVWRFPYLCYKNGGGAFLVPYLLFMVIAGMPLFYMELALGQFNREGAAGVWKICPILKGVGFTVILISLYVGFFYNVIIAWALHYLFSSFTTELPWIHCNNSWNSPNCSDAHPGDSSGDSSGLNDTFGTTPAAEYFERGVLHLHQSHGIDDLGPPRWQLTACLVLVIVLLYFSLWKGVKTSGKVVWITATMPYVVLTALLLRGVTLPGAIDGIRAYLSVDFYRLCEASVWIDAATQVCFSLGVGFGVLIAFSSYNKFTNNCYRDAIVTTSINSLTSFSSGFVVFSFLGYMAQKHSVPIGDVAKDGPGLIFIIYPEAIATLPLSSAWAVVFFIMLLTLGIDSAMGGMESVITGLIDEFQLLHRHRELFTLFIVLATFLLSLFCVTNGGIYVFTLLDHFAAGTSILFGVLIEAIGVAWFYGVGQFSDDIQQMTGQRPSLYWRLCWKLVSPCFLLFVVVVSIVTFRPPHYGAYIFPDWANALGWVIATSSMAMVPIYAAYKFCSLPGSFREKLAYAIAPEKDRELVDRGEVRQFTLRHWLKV
Sodium-dependent noradrenaline transporter, sequence (P23975 whole entry): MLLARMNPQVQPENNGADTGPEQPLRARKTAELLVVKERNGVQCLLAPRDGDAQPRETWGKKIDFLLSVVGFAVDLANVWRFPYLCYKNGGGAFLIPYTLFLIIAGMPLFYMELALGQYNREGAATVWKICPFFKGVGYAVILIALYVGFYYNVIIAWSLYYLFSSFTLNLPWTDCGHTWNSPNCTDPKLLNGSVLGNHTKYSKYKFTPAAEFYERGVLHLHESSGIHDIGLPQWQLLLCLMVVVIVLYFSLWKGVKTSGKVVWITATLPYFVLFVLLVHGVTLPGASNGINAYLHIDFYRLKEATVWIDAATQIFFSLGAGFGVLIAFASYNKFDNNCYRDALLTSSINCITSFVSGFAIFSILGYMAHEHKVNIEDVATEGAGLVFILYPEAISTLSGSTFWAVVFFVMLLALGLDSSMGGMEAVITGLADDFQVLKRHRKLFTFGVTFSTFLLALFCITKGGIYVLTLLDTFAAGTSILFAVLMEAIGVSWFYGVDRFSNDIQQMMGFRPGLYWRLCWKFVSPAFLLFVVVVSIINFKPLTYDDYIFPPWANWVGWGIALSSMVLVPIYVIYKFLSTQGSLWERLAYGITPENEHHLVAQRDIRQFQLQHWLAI
Sodium-dependent serotonin transporter, sequence (P31645 whole entry): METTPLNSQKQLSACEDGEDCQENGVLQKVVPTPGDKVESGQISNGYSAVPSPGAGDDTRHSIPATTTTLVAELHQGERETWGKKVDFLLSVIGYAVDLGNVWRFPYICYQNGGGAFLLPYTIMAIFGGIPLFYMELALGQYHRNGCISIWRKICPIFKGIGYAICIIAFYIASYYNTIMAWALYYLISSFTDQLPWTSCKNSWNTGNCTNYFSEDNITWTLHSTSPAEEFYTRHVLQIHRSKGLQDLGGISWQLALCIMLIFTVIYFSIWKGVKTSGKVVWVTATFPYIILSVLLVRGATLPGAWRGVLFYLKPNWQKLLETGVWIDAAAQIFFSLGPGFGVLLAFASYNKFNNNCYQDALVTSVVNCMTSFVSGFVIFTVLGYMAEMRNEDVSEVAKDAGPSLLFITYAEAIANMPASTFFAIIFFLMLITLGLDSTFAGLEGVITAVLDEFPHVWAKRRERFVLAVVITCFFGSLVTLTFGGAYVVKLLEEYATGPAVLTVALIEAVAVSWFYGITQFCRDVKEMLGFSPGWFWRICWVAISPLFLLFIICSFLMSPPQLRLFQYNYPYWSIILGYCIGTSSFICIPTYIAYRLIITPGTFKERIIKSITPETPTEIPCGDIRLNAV
Voltage-gated inwardly rectifying potassium channel KCNH2, sequence (Q12809 whole entry): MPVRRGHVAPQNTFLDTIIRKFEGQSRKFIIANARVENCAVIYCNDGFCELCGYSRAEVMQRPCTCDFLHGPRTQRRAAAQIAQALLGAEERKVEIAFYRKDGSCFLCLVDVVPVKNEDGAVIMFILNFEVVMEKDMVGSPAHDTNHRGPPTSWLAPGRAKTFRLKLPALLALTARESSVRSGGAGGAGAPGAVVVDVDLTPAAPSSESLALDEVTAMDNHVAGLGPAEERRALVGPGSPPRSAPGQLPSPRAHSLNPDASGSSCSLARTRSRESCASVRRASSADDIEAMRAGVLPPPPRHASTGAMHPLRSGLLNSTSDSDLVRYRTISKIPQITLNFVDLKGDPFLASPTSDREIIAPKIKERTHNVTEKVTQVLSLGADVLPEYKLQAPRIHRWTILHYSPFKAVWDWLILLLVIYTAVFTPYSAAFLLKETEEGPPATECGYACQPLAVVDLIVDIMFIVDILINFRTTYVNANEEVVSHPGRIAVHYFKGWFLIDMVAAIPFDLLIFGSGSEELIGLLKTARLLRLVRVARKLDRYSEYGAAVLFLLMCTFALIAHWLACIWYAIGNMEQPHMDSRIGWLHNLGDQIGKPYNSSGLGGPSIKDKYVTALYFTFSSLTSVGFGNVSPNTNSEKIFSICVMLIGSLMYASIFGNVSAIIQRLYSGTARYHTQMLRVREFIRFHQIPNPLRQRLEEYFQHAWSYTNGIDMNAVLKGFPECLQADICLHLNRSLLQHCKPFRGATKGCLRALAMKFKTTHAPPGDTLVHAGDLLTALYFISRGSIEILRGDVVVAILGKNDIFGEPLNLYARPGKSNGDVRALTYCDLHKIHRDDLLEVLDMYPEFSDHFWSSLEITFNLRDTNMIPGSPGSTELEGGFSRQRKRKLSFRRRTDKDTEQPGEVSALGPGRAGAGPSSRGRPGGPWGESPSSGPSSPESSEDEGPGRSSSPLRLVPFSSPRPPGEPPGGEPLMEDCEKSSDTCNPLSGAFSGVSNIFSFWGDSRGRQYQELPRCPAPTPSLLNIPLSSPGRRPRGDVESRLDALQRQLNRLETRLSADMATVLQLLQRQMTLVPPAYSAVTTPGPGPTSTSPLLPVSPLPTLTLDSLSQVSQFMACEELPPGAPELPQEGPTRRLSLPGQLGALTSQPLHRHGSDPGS

Regarding `Cc1c(CCN2CCNCC2)ccc2cc(F)ccc12`, the results for the IC50 in test [1], in test [2] and in test [3] were 4 nM, 8400 nM and above 31000 nM, respectively. The molecule further returned a Ki in test [4] of 10100 nM.
As to `N#Cc1ccc2ccc(OCC3CCNCC3)cc2c1`, the IC50 in test [1] worked out at 3 nM; in test [2], 4400 nM; in test [3], 8800 nM. Moreover, the Ki came to 3500 nM in test [4] and 404 nM in test [5].
For `c1ccc2cc(CO[C@H]3CCNC3)ccc2c1`, the 50% inhibitory concentration (IC50) in test [1] is 23 nM; in test [2], 2900 nM; in test [3], 15000 nM. In addition, in test [4], the Ki amounted to 15700 nM.
In the case of `CCN([C@@H]1CCNC1)S(=O)(=O)c1ccc2ccccc2c1`, the IC50 in test [1] is 30 nM; in test [2], 2600 nM; in test [3] it was above 30000 nM.
In the case of `c1ccc2cc(OCC3CCNCC3)ccc2c1`, the values for the IC50 in test [1], in test [2] and in test [3] were 8 nM, 1800 nM and above 7000 nM, respectively. In addition, the Ki in test [5] was found to be 311 nM.
Turning to `Fc1ccc2cc(CCN3CCNCC3)ccc2c1`, the IC50 in test [1] was 11 nM; in test [2], 10500 nM; in test [3], 24000 nM. The affinity in test [4], expressed as Ki, was 8500 nM.
As to `N#Cc1ccc2cc(OC[C@H]3CCNC3)ccc2c1`, the IC50 was determined as 37 nM in test [1] and 200 nM in test [2].
Consider `N#Cc1ccc2cc(OCC3CCNCC3)ccc2c1`, for which the IC50 is 15 nM in test [1], 1900 nM in test [2] and 6000 nM in test [3].
Consider `CN([C@@H]1CCNC1)S(=O)(=O)c1ccc2ccccc2c1`, for which the IC50 in test [1] came out at 138 nM; in test [2] it was 3000 nM.
`CN([C@H]1CCNC1)S(=O)(=O)c1ccc2ccccc2c1` registered a 50% inhibitory concentration (IC50) in test [1] above 400 nM.
Regarding `CN(Cc1ccc2ccccc2c1)[C@@H]1CCNC1`, the values for the IC50 in test [1], in test [2] and in test [3] were 119 nM, 3000 nM and 3000 nM, respectively.
`c1ccc2cc(CO[C@@H]3CCNC3)ccc2c1`: the IC50 came to 20 nM in test [1], 1200 nM in test [2] and 3800 nM in test [3]. Moreover, affinity in test [4] was put at a Ki of 16400 nM.
On the same counts, the results for `N#Cc1ccc2cc(CO[C@H]3CCNC3)ccc2c1` are 3 nM, 6800 nM, 861 nM and 4500 nM.
For the molecule `Fc1ccc2cc(CO[C@@H]3CCNC3)ccc2c1`, the IC50 was found to be 4 nM in test [1], 10600 nM in test [2] and 2100 nM in test [3]. For the same molecule, the affinity in test [4], expressed as Ki, was 10300 nM.
For the molecule `CCN(C1CCNCC1)S(=O)(=O)c1ccc2ccccc2c1`, the IC50 in test [1] was above 400 nM; in test [2] it was above 10000 nM; in test [3] it was above 10000 nM.
Turning to `CCCCN(Cc1ccc2ccccc2c1)[C@H]1CCNC1`, the IC50 in test [1] amounted to 0.3 nM; in test [2] it was 80 nM; in test [3] it was 88 nM.
The like results for `CC(C)CN(Cc1ccc2ccccc2c1)[C@@H]1CCNC1` were, in that order, 5 nM, 80 nM and 66 nM.
In the case of `c1ccc2cc(CCN3CCNCC3)ccc2c1`, the IC50 in test [1] is 88 nM.
For the molecule `N#Cc1ccc2cc(OC[C@@H]3CCNC3)ccc2c1`, the IC50 stood at 42 nM in test [1] and 772 nM in test [2].
In the case of `CN(Cc1ccc2ccccc2c1)[C@H]1CCNC1`, the results for the concentration for half-maximal inhibition (IC50) in test [1], in test [2] and in test [3] were 13 nM, 5400 nM and 7700 nM, respectively. This molecule came in with a Ki in test [4] above 5000 nM.
Regarding `c1ccc2cc(CN(C3CCC3)C3CCNCC3)ccc2c1`, the figures for the IC50 in test [1], in test [2] and in test [3] were 2 nM, 1500 nM and 210 nM, respectively.
For the molecule `CCCCN(C1CCNCC1)S(=O)(=O)c1ccc2ccccc2c1`, the IC50 in test [1] stood at 14 nM; in test [2] it was 40000 nM; in test [3], 19000 nM. In test [4], this molecule had a Ki of 716 nM.
The like results for `CCCCN([C@H]1CCNC1)S(=O)(=O)c1ccc2ccccc2c1` were, in that order, 16 nM, 5600 nM, above 30000 nM and 412 nM.
Turning to `c1ccc2cc(OCC3CCNC3)ccc2c1` (racemic), the 50% inhibitory concentration (IC50) in test [1] is 25 nM; in test [2] it was 1400 nM; in test [3] it was 1000 nM. The molecule also yielded a Ki in test [4] above 5500 nM.
In the case of `COCC(Oc1ccc2ccccc2c1)C1CCNCC1` (racemic), the IC50 in test [1] turned out to be 5 nM; in test [2], 827 nM. The molecule also displayed a Ki in test [5] above 10000 nM.
`c1ccc2cc(COC3CCNCC3)ccc2c1` [LITOXETINE]: the figures for the IC50 in test [1], in test [2] and in test [3] were 6 nM, 6500 nM and 1300 nM, respectively.
